In BindingDB's records for doi:10.1016/j.chembiol.2007.10.011 (Vanderbilt University, 2007):
Where “and” joins values, the source holds several entries; their conditions need not be identical. Equal entries are not always repeated.

Columns and labels:
[1] = target: Sterol 14-alpha demethylase (Trypanosoma cruzi (strain CL Brener), UniProt Q7Z1V1); assay: Inhibition Assay; settings: pH 6
[2] = target: Lanosterol 14-alpha-demethylase (Trypanosoma brucei brucei (strain 927/4 GUTat10.1), UniProt Q385E8); assay: Inhibition Assay; settings: pH 6
Lanosterol 14-alpha-demethylase, sequence (Q385E8 whole entry): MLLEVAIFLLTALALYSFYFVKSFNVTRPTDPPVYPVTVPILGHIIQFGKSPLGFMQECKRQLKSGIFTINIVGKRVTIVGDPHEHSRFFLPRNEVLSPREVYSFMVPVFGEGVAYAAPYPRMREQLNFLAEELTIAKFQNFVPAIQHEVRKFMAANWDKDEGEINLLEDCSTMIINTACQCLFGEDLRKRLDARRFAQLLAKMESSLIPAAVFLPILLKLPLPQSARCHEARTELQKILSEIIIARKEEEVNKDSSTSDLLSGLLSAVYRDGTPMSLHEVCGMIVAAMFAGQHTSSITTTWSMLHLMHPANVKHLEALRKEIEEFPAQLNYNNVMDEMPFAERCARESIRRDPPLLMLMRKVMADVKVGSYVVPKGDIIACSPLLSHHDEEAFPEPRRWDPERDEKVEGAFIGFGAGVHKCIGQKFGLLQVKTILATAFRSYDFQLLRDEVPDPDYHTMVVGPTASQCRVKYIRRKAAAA

Sterol 14-alpha demethylase, sequence (Q7Z1V1 whole entry): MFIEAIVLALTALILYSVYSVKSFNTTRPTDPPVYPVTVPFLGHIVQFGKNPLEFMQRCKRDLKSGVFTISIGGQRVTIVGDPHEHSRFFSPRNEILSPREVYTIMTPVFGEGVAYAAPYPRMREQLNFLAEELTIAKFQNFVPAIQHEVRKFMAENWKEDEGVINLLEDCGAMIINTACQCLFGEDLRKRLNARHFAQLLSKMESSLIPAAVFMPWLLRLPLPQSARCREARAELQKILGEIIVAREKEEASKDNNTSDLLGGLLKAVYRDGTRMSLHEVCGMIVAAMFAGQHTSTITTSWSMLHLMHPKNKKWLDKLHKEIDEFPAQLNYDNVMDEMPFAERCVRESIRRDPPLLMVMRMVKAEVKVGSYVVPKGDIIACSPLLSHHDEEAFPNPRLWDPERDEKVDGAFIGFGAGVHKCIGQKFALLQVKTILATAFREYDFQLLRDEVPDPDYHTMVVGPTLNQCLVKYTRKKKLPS

Q: Which Kd [1] does the source give for `O=C(NCC(c1ccccc1)n1ccnc1)c1ccc(-c2ccc(Cl)cc2)cc1` (centres undefined) [Azole, 12] here?
A: 70 nM

Q: What about the Kd [2] of the same compound?
A: 40 nM

Q: `CC(=O)N1CCN(c2ccc(OC[C@H]3CO[C@](Cn4ccnc4)(c4ccc(Cl)cc4Cl)O3)cc2)CC1` [24F2-1,25(OH)D3] was tested. Which Kd [2] did it give?
A: 2300 nM

Q: For `O=C(NCC(c1ccccc1)n1ccnc1)c1cnc[nH]1` (centres undefined) [Azole, 5], which Kd [1] is on record?
A: 1200 nM

Q: What about the Kd [2] of the same compound?
A: 1900 nM

Q: Which results are given for `O=C(NCC(c1ccccc1)n1ccnc1)c1cccc2c1oc1ccccc12` (centres undefined) [Azole, 6]?
A: Kd [1]: 130 nM; Kd [2]: 210 nM

Q: How did the Kd [1] turn out when `O=C(NC(Cn1ccnc1)c1ccc(Cl)cn1)c1ccc(-c2ccc(Cl)cc2)cc1` (centres undefined) [Azole, 20] was run?
A: 70 nM

Q: What does the source list for `COc1cccc(Sc2ccc(C(=O)NCC(c3ccccc3)n3ccnc3)cc2)c1` (centres undefined) [Azole, 9]?
A: Kd [1]: 90 nM; Kd [2]: 70 nM

Q: With `O=C(NC(Cn1ccnc1)c1ccc(Cl)cn1)c1ccc(-c2ccc(Cl)cc2)cc1` (centres undefined) [Azole, 19] as the compound, how does the Kd [1] read?
A: 60 nM

Q: And the Kd [2]?
A: 90 nM

Q: For `O=C(NCC(c1ccccc1)n1ccnc1)c1ccc2sc3ccccc3c(=O)c2c1` (centres undefined) [Azole, 7], which Kd [1] is on record?
A: 380 nM

Q: And the Kd [2]?
A: 310 nM

Q: With `O=C(NCC(c1ccc(Cl)cc1)(c1ccc(Cl)cc1)n1ccnc1)c1ccccc1` [Azole, 1] as the compound, how does the Kd [1] read?
A: 320 nM

Q: And the Kd [2]?
A: 1010 nM

Q: With `CCCCOc1ccc(-c2ccc(C(=O)NC(Cn3ccnc3)c3ccc(Cl)cn3)cc2)cc1` (centres undefined) [Azole, 17] as the compound, how does the Kd [1] read?
A: 110 nM

Q: And the Kd [2]?
A: 80 nM

Q: With `COc1ccc(CC(CNC(=O)c2ccc(-c3ccc(Cl)cc3)cc2)n2ccnc2)cc1` (centres undefined) [Azole, 11] as the compound, how does the Kd [1] read?
A: 110 nM

Q: And the Kd [2]?
A: 710 nM

Q: `O=C(NCC(c1ccccc1)n1ccnc1)c1cccc(Sc2ccccc2)c1` (centres undefined) [Azole, 10] was tested. Which Kd [1] did it give?
A: 50 nM

Q: What about the Kd [2] of the same compound?
A: 50 nM

Q: Which Kd [2] does the source give for `O=C(NC(Cn1ccnc1)c1ccc(Cl)cc1Cl)c1nnc(-c2ccccc2)o1` (centres undefined) [Azole, 2] here?
A: 90 nM and 100 nM

Q: For `O=C(NC(Cn1ccnc1)c1ccc(Cl)cc1Cl)c1nnc(-c2ccccc2)o1` (centres undefined) [Azole, 3], which Kd [1] is on record?
A: 140 nM

Q: And the Kd [2]?
A: 140 nM

Q: `O=C(NCC(c1ccccc1)n1ccnc1)c1csc(-c2ccc(Cl)cc2)c1` (centres undefined) [Azole, 8] was tested. Which Kd [1] did it give?
A: 110 nM

Q: What about the Kd [2] of the same compound?
A: 210 nM

Q: Which results are given for `O=C(NC(Cn1ccnc1)c1ccccc1)c1ccc(-c2ccc(Cl)cc2)cc1` (centres undefined) [Azole, 4]?
A: Kd [1]: 70 nM; Kd [2]: 50 nM
